# Data published in paper PMC6334293 (Journal of medicinal chemistry, 2018).
# Columns and labels:
# BCL6^BTB LG = settings: read-out: KD (MST); microscale thermophoresis; cited from earlier work
# BCL6^BTB [1] = molecular target: T1, BCL6^BTB (Homo sapiens, UniProt P41182, C67R/C84N/E99V)
# Ly1B50 = test: Growth inhibition; assay type: cell-based; settings: Homo sapiens, 48 h, read-out: GI50 BCL6 independent cell Ly1B50
# [2] = system: BCL6-dependent and BCL6-independent lymphoma cells; test: Differential cell killing assays, panel statements; assay type: cell-based, human
# SUDHL6 = test: Growth inhibition; assay type: cell-based, human
# KAISO = KAISO (Homo sapiens, UniProt Q86T24); settings: Figure S8
# Sequence of KAISO (Q86T24 1-122, species assumed): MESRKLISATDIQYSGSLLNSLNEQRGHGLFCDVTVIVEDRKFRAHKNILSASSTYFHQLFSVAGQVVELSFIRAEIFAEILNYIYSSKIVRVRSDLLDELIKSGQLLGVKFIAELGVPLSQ
# OCI-Ly7 = test: Growth inhibition; assay type: cell-based, human
# BCL6^BTB [3] = molecular target: T1, BCL6^BTB; settings: NMR KD
# MIZ1 = molecular target: T2, MIZ1 (Homo sapiens, UniProt Q13105); test: Protein-observed NMR binding to MIZ1 BTB; settings: Figure S8
# T2 sequence (Q13105 1-115): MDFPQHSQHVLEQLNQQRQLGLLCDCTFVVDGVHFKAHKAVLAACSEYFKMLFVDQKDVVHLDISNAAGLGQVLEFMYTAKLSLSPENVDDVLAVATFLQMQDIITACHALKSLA
# LRF = LRF (Homo sapiens, UniProt O95365); settings: Figure S8
# Sequence of LRF (O95365 1-130): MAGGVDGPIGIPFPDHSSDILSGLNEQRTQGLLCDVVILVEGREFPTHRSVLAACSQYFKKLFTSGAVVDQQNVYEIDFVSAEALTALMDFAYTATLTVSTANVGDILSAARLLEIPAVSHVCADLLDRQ
smiles,measurement,setting,value
O=C(O)CC(C(=O)O)N1C(=O)/C(=C2/C(=O)Nc3ccc(Br)cc32)SC1=S (stereo not drawn) [79–6],Kd,BCL6^BTB LG,129 µM
"CC(C)NC(=O)Cn1ccc2ccc(NC(=S)NCCc3c[nH]c4ccccc34)cc21 [Compound 7b, 2-(6-(3-(2-(1H-Indol-3-yl)ethyl)thioureido)-1H-indol-1-yl)-N-isopropylacetamide]",improvement of 6PA value compared to compound 7a,BCL6^BTB [1],3.7 fold
"O=C(O)CNC(=O)Cn1ccc2ccc(NC(=S)NCCc3c[nH]c4ccccc34)cc21 [Compound 7i, (2-(6-(3-(2-(1H-Indol-3-yl)ethyl)thioureido)-1H-indol-1-yl)acetyl)glycine]",GI50,Ly1B50,> 500 µM
same,effect on all seven lymphoma cell lines,[2]; at the concentration of 500 μM,no effect
"COC(=O)Cn1cc(CN2CCN(C)CC2)c2ccc(NC(=S)NCCc3c[nH]c4ccccc34)cc21 [Compound 13, Methyl 2-(6-(3-(2-(1H-indol-3-yl)ethyl)thioureido)-3-((4-methylpiperazin-1-yl)methyl)-1H-indol-1-yl)acetate]",GI50,Ly1B50,> 500 µM
same,"cellular activity, SUDHL6 cells",SUDHL6,weak cellular activity
same,6PA,BCL6^BTB [1],363 Hz
"CC(C)NC(=O)Cn1cc(CN2CCN(C)CC2)c2ccc(NC(=S)NCCc3c[nH]c4ccccc34)cc21 [Compound 15a, 2-(6-(3-(2-(1H-indol-3-yl)ethyl)thioureido)-3-((4-methylpiperazin-1-yl)methyl)-1H-indol-1-yl)-N-isopropylacetamide]",GI50,Ly1B50,> 500 µM
same,effects in the cell killing assays,[2],no effects
"CN1CCN(Cc2cn(CC(=O)NCC(=O)O)c3cc(NC(=S)NCCc4c[nH]c5ccccc45)ccc23)CC1 [Compound 15c, (2-(6-(3-(2-(1H-Indol-3-yl)ethyl)thioureido)-3-((4-methylpiperazin-1-yl)methyl)-1H-indol-1-yl)acetyl)glycine]",GI50,Ly1B50,> 500 µM
same,effects in the cell killing assays,[2],no effects
"CCN(CC)C(=O)Cn1cc(CN2CCN(C)CC2)c2ccc(NC(=S)NCCc3c[nH]c4ccccc34)cc21 [Compound 15d, 2-(6-(3-(2-(1H-Indol-3-yl)ethyl)thioureido)-3-((4-methylpiperazin-1-yl)methyl)-1H-indol-1-yl)-N,N-diethylacetamide]",6PA,BCL6^BTB [1],390 Hz
"CN1CCN(Cc2cn(CC(=O)N3CCCCC3)c3cc(NC(=S)NCCc4c[nH]c5ccccc45)ccc23)CC1 [Compound 15e, 1-(2-(1H-Indol-3-yl)ethyl)-3-(3-((4-methylpiperazin-1-yl)methyl)-1-(2-oxo-2-(piperidin-1-yl)ethyl)-1H-indol-6-yl)thiourea]",GI50,Ly1B50,> 500 µM
same,GI50,"[2]; Homo sapiens, read-out: GI50 for BCL6-dependent lymphoma cells",33 to 103 µM
same,effect on all tested BCL6-independent lymphoma cells,[2]; at the concentration of 500 μM,no effect
"CN1CCN(Cc2cn(CC(=O)N3CCOCC3)c3cc(NC(=S)NCCc4c[nH]c5ccccc45)ccc23)CC1 [Compound 15f, 1-(2-(1H-Indol-3-yl)ethyl)-3-(3-((4-methylpiperazin-1-yl)methyl)-1-(2-morpholino-2-oxoethyl)-1H-indol-6-yl)thiourea]",GI50,Ly1B50,> 500 µM
same,binding to KAISO BTB domain,KAISO,no interactions
same,"cellular activity, OCI-Ly7 cells",OCI-Ly7,weak potency
same,improvement of affinity over 15a,BCL6^BTB [3],6 fold
same,binding to MIZ1 BTB domain,MIZ1,no interactions
same,activity to other tested BCL6-dependent lymphoma cells,[2]; other than OCI-Ly7,no obvious activity
same,binding to LRF BTB domain,LRF,no interactions
"CC1CN(C(=O)Cn2cc(CN3CCN(C)CC3)c3ccc(NC(=S)NCCc4c[nH]c5ccccc45)cc32)CCO1 (stereo not drawn) [Compound 15g, 1-(2-(1H-Indol-3-yl)ethyl)-3-(1-(2-(2-methylmorpholino)-2-oxoethyl)-3-((4-methylpiperazin-1-yl)methyl)-1H-indol-6-yl)thiourea]",GI50,Ly1B50,> 500 µM
same,"cellular activity, OCI-Ly7 cells",OCI-Ly7,only showed activity
